According to US20230416256A1, “SMALL MOLECULE INHIBITORS OF NF-kB INDUCING KINASE” (Janssen Pharmaceutica NV, priority 2020, published 2023):
Like-named read-outs stand apart in the source and are kept apart here.

Experiments:
[1] = biological target: recombinant human NF-kappaB-inducing kinase (NIK/MAP3K14) (Homo sapiens, UniProt Q99558); assay: Inhibition of auto-phosphorylation of recombinant human NIK/MAP3K14 activity (AlphaScreen); type: biochemical; details: GST-tagged NIK/MAP3K14 1 nM, 5 μM ATP, 2 h at 25° C.; average of values obtained
Chain of recombinant human NF-kappaB-inducing kinase (NIK/MAP3K14) (Q99558 whole entry): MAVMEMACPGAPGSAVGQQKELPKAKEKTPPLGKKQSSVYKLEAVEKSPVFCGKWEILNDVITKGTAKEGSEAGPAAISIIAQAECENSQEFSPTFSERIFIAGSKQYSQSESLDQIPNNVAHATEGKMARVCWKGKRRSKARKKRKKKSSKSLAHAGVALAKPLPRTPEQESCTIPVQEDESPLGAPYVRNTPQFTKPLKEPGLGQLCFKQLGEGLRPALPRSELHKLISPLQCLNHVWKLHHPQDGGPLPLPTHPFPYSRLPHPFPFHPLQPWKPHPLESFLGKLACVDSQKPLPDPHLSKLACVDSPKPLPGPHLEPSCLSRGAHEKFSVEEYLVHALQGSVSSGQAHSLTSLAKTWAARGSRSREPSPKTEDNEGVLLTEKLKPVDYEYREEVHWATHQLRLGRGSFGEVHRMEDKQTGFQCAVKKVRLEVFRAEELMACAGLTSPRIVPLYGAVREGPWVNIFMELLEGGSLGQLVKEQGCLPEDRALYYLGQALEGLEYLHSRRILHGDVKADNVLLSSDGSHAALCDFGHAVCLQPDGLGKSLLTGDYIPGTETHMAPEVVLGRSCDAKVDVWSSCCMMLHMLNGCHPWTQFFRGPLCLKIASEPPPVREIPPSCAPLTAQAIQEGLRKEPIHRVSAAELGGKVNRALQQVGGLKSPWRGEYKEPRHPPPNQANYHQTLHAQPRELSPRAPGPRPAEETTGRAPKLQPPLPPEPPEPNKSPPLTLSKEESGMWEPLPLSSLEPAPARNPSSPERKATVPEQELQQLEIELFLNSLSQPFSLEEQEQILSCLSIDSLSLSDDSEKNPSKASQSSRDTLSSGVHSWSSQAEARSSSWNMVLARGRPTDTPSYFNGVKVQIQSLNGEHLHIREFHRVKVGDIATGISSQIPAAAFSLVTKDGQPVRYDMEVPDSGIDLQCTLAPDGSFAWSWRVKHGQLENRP
Protocol: Inhibition of Auto-Phosphorylation of Recombinant Human NF-kappaB-Inducing Kinase (NIK/MAP3K14) Activity (AlphaScreen®)
NIK/MAP3K14 auto-phosphorylation activity was measured using the AlphaScreen® (αscreen) format (Perkin Elmer). All compounds tested were dissolved in dimethyl sulfoxide (DMSO) and further dilutions were made in assay buffer. The final DMSO concentration was 0.7% (v/v) in assays. The assay buffer was 50 mM Tris pH 7.5 containing 1 mM EGTA (ethylene glycol tetraacetic acid), 1 mM DTT (dithiothreitol), 0.1 mM Na3VO4, 5 mM MgCl2, and 0.01% Tween® 20. The assays were carried out in 384 well Proxiplates (Perkin Elmer). The incubations consisted of the compound, 5 μM Adenosine-5′-triphosphate (ATP), and 1 nM NIK/MAP3K14. Incubations were initiated by the addition of GST-tagged NIK/MAP3K14 enzyme, carried out for 2 h at 25° C. and terminated by addition of stop buffer containing anti-phospho-IKK Ser176/180 antibody. Protein A Acceptor and Glutathione-Donor beads were added before reading using an EnVision Multilabel Plate Reader (Perkin Elmer). The signal obtained in the wells was normalized using high (full enzyme activity, 0.7% DMSO) and low controls (no enzyme activity, 0.7% DMSO, no ATP). IC50's were determined by fitting a sigmoidal curve to % inhibition of control versus Log10 compound concentration.

[2] = tested on: p-IKKα levels in L363 (NIK translocated multiple myeloma) cells; assay: Effect of compounds on p-IKKα levels in L363 cells (AlphaLISA SureFire Ultra); type: cell-based, human; details: Homo sapiens, 10 μM MG132, 6 h, average of values obtained, read-out: Assay 2 IC50
Protocol: Effect of Compounds on p-IKKα Levels in L363 (NIK Translocated Multiple Myeloma) Cells
All compounds tested were dissolved and serially diluted in DMSO, 1:3 dilution for 11 points in an Echo compatible plate. 100% DMSO was added to columns 12 and 24 of the plate to serve as high and low signal controls. This compound plate was used to spot 20 nL of compound or DMSO into a Greiner 384 well TC plate (781080). The final DMSO concentration was 0.3% (v/v) in cell assays. Human L363 cells (ATCC) were cultured in RPMI1640 medium supplemented with GlutaMax, non-essential amino acids, sodium pyruvate and 10% fetal bovine serum. Cells were routinely maintained at densities of […]-2×10^6 cells per mL at 37° C. in a humidified 5% CO2 atmosphere incubator. Cells were passaged twice a week splitting back to obtain the low density. The day before the assay, cells were washed twice in HBSS (Hank's Balanced Salt Solution), resuspended in Dulbecco's Modified Eagle Medium (DMEM)+0.5% IgG and protease free BSA (Jackson Immuno Research Laboratories), +/−250 ng/ml recombinant human B-cell activating factor (BAFF/BLyS/TNFSF13B) and incubated overnight at 37° C. in a humidified 5% CO2 atmosphere (bulk stimulation with or without BAFF). The next day, the cell concentration was adjusted to 1×10^7 cells/ml in DMEM+/−250 ng/ml BAFF+/10 μM MG132 and plated at […] into compound or DMSO spotted 384 well TC plates. Seeded cells were incubated at 37° C. in a humidified 5% CO2 atmosphere for 6 h. After 6 h, the plates were removed from the incubator and cell lysis was achieved by the addition of 2.5 μl 5×lysis buffer containing protease and phosphatase inhibitors, followed by shaking on a plate shaker at room temperature for 15 min. At the end of this incubation, lysed cells were sequentially treated and incubated with acceptor and donor bead mixes according to the manufacturer's protocol for a 1 plate/2-incubation suspension cell assay (AlphaLISA SureFire Ultra p-IKKa (Ser 176/180) Assay Kit (Perkin Elmer). Plates were read using an EnVision Multilabel Plate Reader (Perkin Elmer). Within an experiment, a concentration response curve for each compound was run in duplicate. The signal obtained in the test wells was normalized using high signal (BAFF stimulated cells, DMSO, MG132) and low signal (unstimulated cells, DMSO) controls. To determine the IC50, a sigmoidal curve was fitted to the plot of % inhibition versus Log10 compound concentration.

[3] = L-363, 6 h, 250 ng/ml BAFF stimulated
[4] = L-363, 250 ng/ml BAFF stimulated

| SMILES | IC50 [1] [nM] | IC50 [2, 3] [nM] | IC50 [2, 4] [nM] |
| --- | --- | --- | --- |
| O[C@]1(c2cccc(-c3csc(-c4c[nH]c5ncccc45)n3)c2)CCc2cccnc21 (single isomer, unassigned) [Example 1] | > 500 | > 500 |  |
| O[C@@]1(c2cccc(-c3csc(-c4c[nH]c5ncccc45)n3)c2)CCc2cccnc21 (single isomer, unassigned) [Example 2] | ≤ 100 | 100 to 500 |  |
| CN1CC[C@@](O)(c2cccc(-c3cnc(-c4c[nH]c5ncccc45)s3)c2)C1=O (single isomer, unassigned) [Example 3] | 100 to 500 |  | > 500 |
| CN1CC[C@](O)(c2cccc(-c3cnc(-c4c[nH]c5ncccc45)s3)c2)C1=O (single isomer, unassigned) [Example 4] | > 500 |  | > 500 |
| O[C@@]1(c2cccc(-c3csc(-c4c[nH]c5ncncc45)n3)c2)CCc2cccnc21 (single isomer, unassigned) [Example 5] | ≤ 100 | 100 to 500 |  |
| O[C@]1(c2cccc(-c3csc(-c4c[nH]c5ncncc45)n3)c2)CCc2cccnc21 (single isomer, unassigned) [Example 6] | 100 to 500 | > 500 |  |
| O[C@@]1(c2cccc(-c3nc(-c4c[nH]c5ncccc45)cs3)c2)CCc2cccnc21 (single isomer, unassigned) [Example 22] | ≤ 100 | 100 to 500 |  |
| O[C@]1(c2cccc(-c3nc(-c4c[nH]c5ncccc45)cs3)c2)CCc2cccnc21 (single isomer, unassigned) [Example 23] | 100 to 500 | > 500 |  |
| O[C@]1(c2cccc(-c3csc(-c4c[nH]c5ncccc45)n3)c2)CCc2scnc21 (single isomer, unassigned) [Example 31] | 100 to 500 | > 500 |  |
| O[C@@]1(c2cccc(-c3csc(-c4c[nH]c5ncccc45)n3)c2)CCc2scnc21 (single isomer, unassigned) [Example 32] | ≤ 100 | ≤ 100 |  |
| O[C@@]1(c2cccc(-c3csc(-c4c[nH]c5ncccc45)n3)c2)C=Cc2cccnc21 (single isomer, unassigned) [Example 33] | ≤ 100 | > 500 |  |
| O[C@]1(c2cccc(-c3csc(-c4c[nH]c5ncccc45)n3)c2)C=Cc2cccnc21 (single isomer, unassigned) [Example 34] | > 500 | > 500 |  |
| CC1(C)Cc2cccnc2[C@@]1(O)c1cccc(-c2csc(-c3c[nH]c4ncccc34)n2)c1 (single isomer, unassigned) [Example 35] | > 500 | > 500 |  |
| CC1(C)Cc2cccnc2[C@]1(O)c1cccc(-c2csc(-c3c[nH]c4ncccc34)n2)c1 (single isomer, unassigned) [Example 36] | ≤ 100 | > 500 |  |
| O[C@]1(c2cccc(-c3csc(-c4c[nH]c5ncccc45)n3)c2)CCCn2ccnc21 (single isomer, unassigned) [Example 37] | > 500 | > 500 |  |
| O[C@@]1(c2cccc(-c3csc(-c4c[nH]c5ncccc45)n3)c2)CCCn2ccnc21 (single isomer, unassigned) [Example 38] | ≤ 100 | ≤ 100 |  |
| CN1CC[C@](O)(c2cccc(-c3csc(-c4c[nH]c5nccnc45)n3)c2)C1=O (single isomer, unassigned) [Example 39] | > 500 |  | > 500 |
| CN1CC[C@@](O)(c2cccc(-c3csc(-c4c[nH]c5nccnc45)n3)c2)C1=O (single isomer, unassigned) [Example 40] | ≤ 100 |  | 100 to 500 |
| CN1CC[C@@](O)(c2cccc(-c3csc(-c4c[nH]c5ncccc45)n3)c2)C1=O (single isomer, unassigned) [Example 47] | ≤ 100 |  | 100 to 500 |
| CN1CC[C@](O)(c2cccc(-c3csc(-c4c[nH]c5ncccc45)n3)c2)C1=O (single isomer, unassigned) [Example 48] | > 500 |  | > 500 |
| CN1CC[C@](O)(c2cccc(-c3csc(-c4c[nH]c5ncncc45)n3)c2)C1=O (single isomer, unassigned) [Example 52] | 100 to 500 |  | > 500 |
